The record followed here is patent US10669240B2, “5-substituted indazole-3-carboxamides and preparation and use thereof” (Samumed, LLC, priority 2014, dated 2020).

In this experiment the target is DYRK1A (Homo sapiens (Human), UniProt Q13627). The experiment is described as follows: DYRK1A activity Tau assay: pSer396 Tau in SH-SY5Y cells by ELISA / western blot. The class given is cell-based. Conditions: overnight (16-18 h) exposure. In general terms: In an ELISA, binding on a coated surface is turned into a signal by an enzyme label.

The molecule `CC(C)NC(=O)c1n[nH]c2ccc(-c3cncc(CN4CCCCC4)c3)cc12` [Compound 131, N-Isopropyl-5-(5-(piperidin-1-ylmethyl)pyridin-3-yl)-1H-indazole-3-carboxamide] displayed an EC50 of 10 nM.

Consider `CC(C)NC(=O)c1n[nH]c2ccc(-c3cccc(F)c3F)cc12` [Compound 140, 5-(2,3-Difluorophenyl)-N-isopropyl-1H-indazole-3-carboxamide], for which the EC50 was found to be 576 nM.

For `O=C(NC1CC1)c1n[nH]c2ccc(-c3cncc(N4CCCC4)c3)cc12` [Compound 143, N-Cyclopropyl-5-(5-(pyrrolidin-1-yl)pyridin-3-yl)-1H-indazole-3-carboxamide], a half-maximal effect (EC50) was put at 10 nM.

Take `O=C(NC1CC1)c1n[nH]c2ccc(-c3cncc(CN4CCCC4)c3)cc12` [Compound 148, N-Cyclopropyl-5-(5-(pyrrolidin-1-ylmethyl)pyridin-3-yl)-1H-indazole-3-carboxamide]: the EC50 is 11 nM.

In turn, `O=C(NC1CCCC1)c1n[nH]c2ccc(-c3cccnc3)cc12` [Compound 179, N-Cyclopentyl-5-(pyridin-3-yl)-1H-indazole-3-carboxamide] yielded an EC50 of 9 nM.

The molecule `O=C(NC1CCCC1)c1n[nH]c2ccc(-c3cncc(N4CCCC4)c3)cc12` [Compound 181, N-Cyclopentyl-5-(5-(pyrrolidin-1-yl)pyridin-3-yl)-1H-indazole-3-carboxamide] displayed an EC50 of 47 nM.

As for `O=C(NC1CCCCC1)c1n[nH]c2ccc(-c3cc(CN4CCCCC4)cc(F)c3F)cc12` [Compound 217, N-Cyclohexyl-5-(2,3-difluoro-5-(piperidin-1-ylmethyl)phenyl)-1H-indazole-3-carboxamide], a half-maximal effect (EC50) was put at 36 nM.

`CC(C)(C)N1CCC(NC(=O)c2n[nH]c3ccc(-c4cncc(N5CCCC5)c4)cc23)CC1` [Compound 293, N-(1-(tert-Butyl)piperidin-4-yl)-5-(5-(pyrrolidin-1-yl)pyridin-3-yl)-1H-indazole-3-carboxamide] had an EC50 of 22 nM.

Regarding `C#CCN1CCC(NC(=O)c2n[nH]c3ccc(-c4cccnc4)cc23)CC1` [Compound 349, N-(1-(Prop-2-yn-1-yl)piperidin-4-yl)-5-(pyridin-3-yl)-1H-indazole-3-carboxamide], the EC50 came out at 5 nM.

`CC#CCN1CCC(NC(=O)c2n[nH]c3ccc(-c4cccnc4)cc23)CC1` [Compound 369, N-(1-(But-2-yn-1-yl)piperidin-4-yl)-5-(pyridin-3-yl)-1H-indazole-3-carboxamide] returned an EC50 of 7 nM.

Turning to `O=C(Nc1ccnc(C(F)(F)F)c1)c1n[nH]c2ccc(-c3cncc(N4CCCC4)c3)cc12` [Compound 820, 5-(5-(Pyrrolidin-1-yl)pyridin-3-yl)-N-(2-(trifluoromethyl)pyridin-4-yl)-1H-indazole-3-carboxamide], it took 81 nM to reach a half-maximal effect (EC50).

`O=C(Nc1cnc(C(F)(F)F)nc1)c1n[nH]c2ccc(-c3cncc(CN4CCCCC4)c3)cc12` [Compound 1116, 5-(5-(Piperidin-1-ylmethyl)pyridin-3-yl)-N-(2-(trifluoromethyl)pyrimidin-5-yl)-1H-indazole-3-carboxamide] came in with an EC50 of 1 nM.

For the molecule `O=C(NC1CCN(Cc2ccccc2)CC1)c1n[nH]c2ccc(-c3cccnc3)cc12` [Compound 1152, N-(1-Benzylpiperidin-4-yl)-5-(pyridin-3-yl)-1H-indazole-3-carboxamide], it took 3 nM to reach a half-maximal effect (EC50).

Turning to `O=C(NC1CCN(CC(F)F)CC1)c1n[nH]c2ccc(-c3cccc(F)c3F)cc12` [Compound 1161, N-(1-(2,2-Difluoroethyl)piperidin-4-yl)-5-(2,3-difluorophenyl)-1H-indazole-3-carboxamide], the EC50 worked out at 134 nM.

In turn, `CN(C)CCNC(=O)c1n[nH]c2ccc(-c3cccc(F)c3F)cc12` [Compound 1165, 5-(2,3-Difluorophenyl)-N-(2-(dimethylamino)ethyl)-1H-indazole-3-carboxamide] had an EC50 of 77 nM.

`O=C(NC1CCN(CCF)CC1)c1n[nH]c2ccc(-c3cccnc3)cc12` [Compound 1180, N-(1-(2-Fluoroethyl)piperidin-4-yl)-5-(pyridin-3-yl)-1H-indazole-3-carboxamide] showed an EC50 of 6 nM.

With `O=C(NC1CCN(CC(F)F)CC1)c1n[nH]c2ccc(-c3cccnc3)cc12` [Compound 1181, N-(1-(2,2-Difluoroethyl)piperidin-4-yl)-5-(pyridin-3-yl)-1H-indazole-3-carboxamide], the response was half-maximal at 6 nM (EC50).

The molecule `O=C(NC1CCN(CC(F)(F)F)CC1)c1n[nH]c2ccc(-c3cccnc3)cc12` [Compound 1182, 5-(Pyridin-3-yl)-N-(1-(2,2,2-trifluoroethyl)piperidin-4-yl)-1H-indazole-3-carboxamide] came in with an EC50 of 8 nM.

For `O=C(NCCN1CCCC1)c1n[nH]c2ccc(-c3cccnc3)cc12` [Compound 1195, 5-(Pyridin-3-yl)-N-(2-(pyrrolidin-1-yl)ethyl)-1H-indazole-3-carboxamide], the EC50 worked out at 4 nM.

Turning to `CN(C)Cc1cncc(-c2ccc3[nH]nc(C(=O)NC(C)(C)C)c3c2)c1` [Compound 1198, N-(tert-Butyl)-5-(5-((dimethylamino)methyl)pyridin-3-yl)-1H-indazole-3-carboxamide], the EC50 was 491 nM.

The molecule `CC(C)(C)NC(=O)c1n[nH]c2ccc(-c3cncc(CN4CCCC4)c3)cc12` [Compound 1200, N-(tert-Butyl)-5-(5-(pyrrolidin-1-ylmethyl)pyridin-3-yl)-1H-indazole-3-carboxamide] came in with an EC50 of 374 nM.

In turn, `CC(C)(C)NC(=O)c1n[nH]c2ccc(-c3cncc(CN4CCCCC4)c3)cc12` [Compound 1202, N-(tert-Butyl)-5-(5-(piperidin-1-ylmethyl)pyridin-3-yl)-1H-indazole-3-carboxamide] had a half-maximal effective concentration (EC50) of 144 nM.

`CC(C)(C)NC(=O)c1n[nH]c2ccc(-c3cncc(CN4CCC4)c3)cc12` [Compound 1206, 5-(5-(Azetidin-1-ylmethyl)pyridin-3-yl)-N-(tert-butyl)-1H-indazole-3-carboxamide] registered an EC50 of 207 nM.

As for `CC(C)(C)NC(=O)c1n[nH]c2ccc(-c3cncc(CN4CC(F)(F)C4)c3)cc12` [Compound 1210, N-(tert-Butyl)-5-(5-((3,3-difluoroazetidin-1-yl)methyl)pyridin-3-yl)-1H-indazole-3-carboxamide], the midpoint of the response, the EC50, lay at 128 nM.

Molecule `CC(C)(C)NC(=O)c1n[nH]c2ccc(-c3cncc(N4CCCC4)c3)cc12` [Compound 1214, N-(tert-Butyl)-5-(5-(pyrrolidin-1-yl)pyridin-3-yl)-1H-indazole-3-carboxamide] showed an EC50 of 419 nM.

Turning to `CCC(CC)NC(=O)c1n[nH]c2ccc(-c3cncc(N4CCCC4)c3)cc12` [Compound 1215, N-(Pentan-3-yl)-5-(5-(pyrrolidin-1-yl)pyridin-3-yl)-1H-indazole-3-carboxamide], the EC50 came out at 199 nM.

As for `CC(C)NC(=O)c1n[nH]c2ccc(-c3cncc(N4CCCC4)c3)cc12` [Compound 1245, N-Isopropyl-5-(5-(pyrrolidin-1-yl)pyridin-3-yl)-1H-indazole-3-carboxamide], a half-maximal response (EC50) required 25 nM.

Molecule `CCN(CC)Cc1cncc(-c2ccc3[nH]nc(C(=O)NC(C)C)c3c2)c1` [Compound 1246, 5-(5-((Diethylamino)methyl)pyridin-3-yl)-N-isopropyl-1H-indazole-3-carboxamide] returned an EC50 of 45 nM.

Take `CC(C)NC(=O)c1n[nH]c2ccc(-c3cncc(Cl)c3)cc12` [Compound 1247, 5-(5-Chloropyridin-3-yl)-N-isopropyl-1H-indazole-3-carboxamide]: the midpoint of the response, the EC50, lay at 53 nM.

In turn, `CC(C)NC(=O)c1n[nH]c2ccc(-c3cncnc3)cc12` [Compound 1248, N-Isopropyl-5-(pyrimidin-5-yl)-1H-indazole-3-carboxamide] came in with an EC50 of 174 nM.

In the case of `CC(C)NC(=O)c1n[nH]c2ccc(-c3cncc4ccccc34)cc12` [Compound 1249, N-Isopropyl-5-(isoquinolin-4-yl)-1H-indazole-3-carboxamide], a half-maximal response (EC50) required 148 nM.

Molecule `CC(C)NC(=O)c1n[nH]c2ccc(-c3cncc(F)c3)cc12` [Compound 1250, 5-(5-Fluoropyridin-3-yl)-N-isopropyl-1H-indazole-3-carboxamide] gave an EC50 of 49 nM.

Regarding `CC(C)NC(=O)c1n[nH]c2cc(F)c(-c3cncc(F)c3)cc12` [Compound 1251, 6-Fluoro-5-(5-fluoropyridin-3-yl)-N-isopropyl-1H-indazole-3-carboxamide], the EC50 amounted to 45 nM.

Molecule `CCN(CC)Cc1cncc(-c2ccc3[nH]nc(C(=O)NC(C)(C)C)c3c2)c1` [Compound 1252, N-(tert-Butyl)-5-(5-((diethylamino)methyl)pyridin-3-yl)-1H-indazole-3-carboxamide] had an EC50 of 421 nM.

Molecule `CC(C)(C)NC(=O)c1n[nH]c2ccc(-c3cccnc3)cc12` [Compound 1253, N-(tert-Butyl)-5-(pyridin-3-yl)-1H-indazole-3-carboxamide] registered an EC50 of 150 nM.

Regarding `CC(C)CNC(=O)c1n[nH]c2ccc(-c3cccnc3)cc12` [Compound 1254, N-Isobutyl-5-(pyridin-3-yl)-1H-indazole-3-carboxamide], the EC50 amounted to 9 nM.

In turn, `CC(C)CNC(=O)c1n[nH]c2ccc(-c3cncc(Cl)c3)cc12` [Compound 1255, 5-(5-Chloropyridin-3-yl)-N-isobutyl-1H-indazole-3-carboxamide] returned an EC50 of 35 nM.

For `CC[C@@H](C)NC(=O)c1n[nH]c2ccc(-c3cncc(Cl)c3)cc12` [Compound 1256, (R)—N-(sec-butyl)-5-(5-chloropyridin-3-yl)-1H-indazole-3-carboxamide], it took 122 nM to reach a half-maximal effect (EC50).

The molecule `CC[C@@H](C)NC(=O)c1n[nH]c2ccc(-c3cccnc3)cc12` [Compound 1257, (R)—N-(sec-butyl)-5-(pyridin-3-yl)-1H-indazole-3-carboxamide] gave an EC50 of 14 nM.

`CC[C@H](C)NC(=O)c1n[nH]c2ccc(-c3cccnc3)cc12` [Compound 1258, (S)—N-(sec-butyl)-5-(pyridin-3-yl)-1H-indazole-3-carboxamide] gave an EC50 of 20 nM.

Regarding `CN(C)CCCNC(=O)c1n[nH]c2ccc(-c3cccc(F)c3F)cc12` [Compound 1260, 5-(2,3-Difluorophenyl)-N-(3-(dimethylamino)propyl)-1H-indazole-3-carboxamide], the EC50 was 135 nM.

Usually EC50 stands for the concentration giving half of the maximal effect.
